In assay [1] the target is H-2 L^d:Ig (DimerX) protein. The assay can be described thus: SPR kinetics of synthetic peptide binding to immobilized DimerX. The arrangement: species or system Mouse. The conditions noted are these: for Kd: KD = kd/ka from SPR at 25°C, read-out: affinity constant (KD); for association constant (ka) / dissociation constant (kd): SPR, DimerX immobilized on carboxylated sensor chip by EDC/NHS, peptide in PBS, neutral pH, 25°C. The protocol:
Surface Functionalization of Sensor Chip (Steps 1 and 2). The functionalization process was performed in eight steps using running buffer (10 mM HEPES, 3 mM EDTA, 150 mM NaCl, and 0.005% Tween 20, pH 7.4) at a continuous flow rate (Fr): (i) injection of 10 μL of 50 mM HCl (Fr = 10 μL/min); (ii) injection of 100 μL 10 mM CH3COOH (Fr = 50 μL/min); (iii) injection of 150 μL of coupling agents (1 : 1) 400 mM EDC : NHS (Fr = 15 μL/min); (iv) injection of 100 μL 10 mM CH3COOH (Fr = 50 μL/min); (v) injection of 100 μL (0.5 μg) of DimerX H-2 L^d:Ig (Fr = 10 μL/min); (vi) injection of 100 μL 10 mM CH3COOH (Fr = 50 μL/min); (vii) injection of 150 μL 100 mM ethanolamine (Fr = 20 μL/min); and (viii) injection of 200 μL 50 mM HCl (Fr = 50 μL/min).
Complex Formation of H-2 L ^d :Ig/Peptide (Step 3). Binding of peptides to protein DimerX was performed through the injection of 100 μL of each synthetic peptide over the functionalized sensor chip (Fr = 10 μL/min). The peptides (2 mg/mL) were diluted in filtrated PBS, which was also used as the running buffer. The concentration of peptides for binding to the DimerX was determined according to the manufacturer's instructions:(1) Mp=MH·R·Dp/DH, where Mp is micrograms of the peptide, MH is micrograms of H-2 in the reaction, R is molar excess (160 mol) between the peptide and protein H-2, Dp is molecular weight of the peptide, and DH is molecular weight of DimerX (250,000 Da).
Affinity Constants and Gibbs Free Energy. […] The following calculation was used to obtain the KD for interactions that rapidly reach equilibrium:(2) KD=kd/ka. The formation of molecular complex between DimerX and peptides complex was also analyzed to calculate the Gibbs free energy of dissociation. This energy is related to the equilibrium constant (Keq) of the transition state between the product (DimerX/peptide) and its transient state. The values of Keq were calculated using the ka and kd data obtained from the SPR assay at 25°C:(3) ΔG^°=−RTln1/Keq.
The kinetic parameters of DimerX/peptides complexes were assessed, prior to the ex vivo assay with the mouse cells, to ensure that the assayed peptides could stably bind to the H-2 cleft of DimerX proteins. The DimerX proteins were immobilized onto the sensor chip using the EDC/NHS methodology for covalent binding and, thus, we assumed that the α1 and α2 domains of the recombinant H-2 were free to interact with the synthetic peptides in solution. The RU value obtained after DimerX immobilization was taken as reference to define the baseline to measure peptides binding (Figure 1).
On the technique in general: SPR reads the build-up and loss of mass on a sensor chip optically.

Assay [2] deals with lymph node cells (T lymphocytes) from L. (L.) amazonensis-infected BALB/c mice. The assay can be described thus: SPR interaction of lymph node cells with immobilized DimerX/peptide complexes. The class given is cell-based. The conditions noted are these: for RUs (subtractive dissociation response) 3rd week: 3rd week of infection; for RUs (subtractive dissociation response) 4th week: 4th week of infection; for RUs (subtractive dissociation response) 6th week: 6th week of infection; for RUs (subtractive dissociation response) 12th week: 12th week of infection; for RUs (subtractive dissociation response) 18th week: 18th week of infection; for trend of reactivity of peptide-reactive T lymphocytes along the infection: weeks 1 to 18 of infection, result in words. The protocol:
BALB/c 5–7-week-old female mice (H-2 haplotype^d) were obtained from the animal care facility of Fiocruz (Centro de Criação de Animais de Laboratório (CECAL), Fiocruz). For the experimental infections, each animal was inoculated subcutaneously with 1.0 × 10^5 stationary-phase promastigotes in PBS (50 μL) in the left hind paw. For in vitro and ex vivo assays, cells were isolated from the lesion-draining popliteal lymph nodes of five mice infected with L. (L.) amazonensis. After isolating and counting the viable cells, these were adjusted and resuspended in RPMI medium supplemented with 2% FCS (5.0 × 10^5 cells/mL). All procedures using animals were previously approved by the Animal Ethics Committee of Fiocruz (Comissão de Ética no Uso de Animais (CEUA), Fiocruz; L-0006/07).
Interaction of the Cells with the Complex DimerX/Peptide (Step 4). The reflectance values were expressed as resonance units per second (RU/s). In these assays, the kinetics of association and dissociation between immobilized DimerX/peptide complexes and lymph node cells were determined. These assays were performed with 10^4 cells suspended in PBS in a final volume of 100 μL (Fr = 5 μL/min).
Regeneration of the Sensor Chips (Step 5). The regeneration was performed by the injection of 250 μL of 30 mM HCl (Fr = 50 μL/min) into the system, followed by the injection of 200 μL PBS (Fr = 50 μL/min). After this procedure, only the DimerX molecules were left on the sensor chip surface; thus they were able to form new complexes with different peptides and interact again with cells.
Lymph node cells were injected onto SPR chips covered by immobilized DimerX/peptides complexes (Figure 4). In these experiments, due to the complexity to define the kinetic parameters for whole cells, the RU values for association (RUa) and dissociation (RUd) were used as standards to assess interaction of cells with the complexes. Also, as the stability of RUd signal over time relates to the stability of interaction, it was used as parameter to define the binding of reactive cells.
Furthermore, experimental evidences support the hypothesis that the binding of the cells from infected mice to the immobilized complexes is specific, once the RUd values obtained for these interactions were consistently higher that those observed for the interaction of cells from noninfected mice. The RU values obtained by the subtraction of the nonspecific interaction RU (cells from noninfected animals) from the specific interaction RU (cells from infected mice) were considered as representative of the binding effectiveness (Table 2). These effectiveness RU values allowed observing a different trend of T lymphocytes recognition for each peptide tested throughout the experimental infection timeline (Table 2).

[3] abbreviates: RUd of cells from infected mice minus RUd of cells from noninfected mice, 10^4 cells in PBS.

Here are results for four sequences from article PMC5361054, “Exploring the Association of Surface Plasmon Resonance with Recombinant MHC:Ig Hybrid Protein as a Tool for Detecting T Lymphocytes in Mice Infected with Leishmania (Leishmania) amazonensis” (BioMed Research International, 2017).

The term Kd denotes the free concentration of one partner at which half of the binding sites on the other are occupied at equilibrium, for simple one-to-one binding.

Sequence of H-2 L^d:Ig (DimerX) protein (P01897 25-298 limits assumed): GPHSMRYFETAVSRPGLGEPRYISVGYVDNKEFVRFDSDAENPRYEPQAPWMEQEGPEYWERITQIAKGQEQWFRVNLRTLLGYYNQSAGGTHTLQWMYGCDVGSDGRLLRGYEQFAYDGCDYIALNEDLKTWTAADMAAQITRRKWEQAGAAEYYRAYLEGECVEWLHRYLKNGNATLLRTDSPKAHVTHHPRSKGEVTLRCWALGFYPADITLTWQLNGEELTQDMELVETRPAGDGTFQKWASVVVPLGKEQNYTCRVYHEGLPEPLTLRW
Sequence of H-2 L^d:Ig (DimerX) protein (P01887 21-119, further chain): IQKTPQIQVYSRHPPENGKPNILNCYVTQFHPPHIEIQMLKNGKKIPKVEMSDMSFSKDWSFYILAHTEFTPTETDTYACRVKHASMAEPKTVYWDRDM

Consider “EFCLGGGLC [P6.5, synthetic peptide … derived from the COOH-terminal region of cysteine proteinase B of L. (L.) amazonensis]”, for which, in assay [1], the Kd came out at 0.7 nM, the “association constant (ka)” value is listed as 6.40 × 10^7 M^−1 S^−1 and the “dissociation constant (kd)” value is given as 0.0470 S^−1. Besides, in assay [2] (setting [3]), the “RUs (subtractive dissociation response) 3rd week” value is 55 RU, the “RUs (subtractive dissociation response) 4th week” value was found to be 185 RU, the “RUs (subtractive dissociation response) 6th week” value is listed as 109 RU and the “RUs (subtractive dissociation response) 12th week” value is recorded as 27 RU. Besides, the “RUs (subtractive dissociation response) 18th week” value in assay [2] (setting [3]) stood at 85 RU. In assay [2], the “trend of reactivity of peptide-reactive T lymphocytes along the infection” value (shortened to “trend”) is listed as “oscillation in their reactivity”.
With “VEQVICFD [P1.10, synthetic peptide VEQVICFD derived from the COOH-terminal region of cysteine proteinase B of L. (L.) amazonensis]”, in assay [1], the Kd is 1 nM, the “association constant (ka)” value is 1.10 × 10^8 M^−1 S^−1 and the “dissociation constant (kd)” value was 0.1230 S^−1. In addition, in assay [2] (setting [3]), the “RUs (subtractive dissociation response) 3rd week” value came out at 227 RU, the “RUs (subtractive dissociation response) 6th week” value is recorded as 123 RU, the “RUs (subtractive dissociation response) 12th week” value worked out at 31 RU and the “RUs (subtractive dissociation response) 18th week” value was determined as 44 RU. For the same sequence, the “trend” value in assay [2] is “clear tendency to diminish their reactivity along the infection”.
Regarding “CLGGGLCL [P6.4, synthetic peptide CLGGGLCL derived from the COOH-terminal region of cysteine proteinase B of L. (L.) amazonensis]”, in assay [1], the Kd worked out at 9 nM, the “association constant (ka)” value is reported as 1.20 × 10^7 M^−1 S^−1 and the “dissociation constant (kd)” value was 0.1089 S^−1. For the same sequence, in assay [2] (setting [3]), the “RUs (subtractive dissociation response) 3rd week” value worked out at 100 RU, the “RUs (subtractive dissociation response) 4th week” value is listed as 127 RU, the “RUs (subtractive dissociation response) 6th week” value was found to be 140 RU and the “RUs (subtractive dissociation response) 18th week” value is listed as 66 RU. The “trend” value in assay [2] is “oscillation in their reactivity”.
Consider “MVEQVICFD [P1.9, synthetic peptide … derived from the COOH-terminal region of cysteine proteinase B of L. (L.) amazonensis]”, for which, in assay [1], the Kd amounted to 74 nM, the “association constant (ka)” value is recorded as 1.57 × 10^6 M^−1 S^−1 and the “dissociation constant (kd)” value came to 0.1157 S^−1. In addition, the “RUs (subtractive dissociation response) 1st week” value in assay [2] (RUd of cells from infected mice minus RUd of cells from noninfected mice, 10^4 cells in PBS, 1st week of infection) was found to be 115 RU. For the same sequence, in assay [2] (setting [3]), the “RUs (subtractive dissociation response) 3rd week” value is 181 RU, the “RUs (subtractive dissociation response) 4th week” value stood at 149 RU, the “RUs (subtractive dissociation response) 6th week” value is recorded as 118 RU and the “RUs (subtractive dissociation response) 12th week” value came out at 120 RU. Further, the “RUs (subtractive dissociation response) 18th week” value in assay [2] (setting [3]) is 66 RU. Moreover, the “trend” value in assay [2] is listed as “oscillation in their reactivity”.
